Patent US12077503B2, “Substituted cyclic amides and their use as herbicides” (FMC CORPORATION, priority 2015, dated 2024)

Key:
Assay type in all cases: in vivo
[1] = test system: barnyardgrass (Echinochloa crus-galli); assay: Test A preemergence; conditions: for Barnyardgrass plant response rating (0 to 100 scale, 0 is no effect, 100 is complete control): visual injury approx. 10 d
Outline: (§1)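 Each rating is a visual injury score from 0 to 100 given about 10 d after treatment, judged against untreated controls kept alongside in the greenhouse. In loam soil–sand blend, seeds got a preemergence directed soil spray, while postemergence plants were 2 to 10 cm tall at spraying.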

[2] = test system: ragweed (common ragweed, Ambrosia elatior); assay: Test A preemergence; conditions: for Ragweed plant response rating (0 to 100 scale, 0 is no effect, 100 is complete control): visual injury approx. 10 d
Outline: as §1

Kochia (Kochia scoparia) [3] = assay: Test A preemergence; conditions: for Kochia plant response rating (0 to 100 scale, 0 is no effect, 100 is complete control): visual injury approx. 10 d
Outline: as §1

[4] = test system: ryegrass, Italian (Italian ryegrass, Lolium multiflorum); assay: Test A preemergence; conditions: for Ryegrass, Italian plant response rating (0 to 100 scale, 0 is no effect, 100 is complete control): visual injury approx. 10 d
Outline: as §1

[5] = test system: giant foxtail (Setaria faberii); assay: Test A preemergence; conditions: for Foxtail, Giant plant response rating (0 to 100 scale, 0 is no effect, 100 is complete control): visual injury approx. 10 d
Outline: as §1

[6] = test system: pigweed (Amaranthus retroflexus); assay: Test A preemergence; conditions: for Pigweed plant response rating (0 to 100 scale, 0 is no effect, 100 is complete control): visual injury approx. 10 d
[7] = test system: barnyardgrass (Echinochloa crus-galli); assay: Test B flooded paddy test; conditions: Flood, 0 to 100 scale where 0 is no effect and 100 is complete control, 13 to 15 d
Outline: (§2)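 Rating scale 0–100 (visual, vs untreated controls) after a 13–15 d greenhouse period; application to the flood layer, 3 cm above soil and maintained; plants at 2-leaf stage when treated.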

rice (Oryra sativa) = assay: Test B flooded paddy test; conditions: Flood, 0 to 100 scale where 0 is no effect and 100 is complete control, 13 to 15 d
Outline: as §2

[8] = test system: sedge, umbrella (small-flower umbrella sedge, Cyperus difformis); assay: Test B flooded paddy test; conditions: Flood, 0 to 100 scale where 0 is no effect and 100 is complete control, 13 to 15 d
Outline: as §2

[9] = test system: ducksalad (Heteranthera limosa); assay: Test B flooded paddy test; conditions: Flood, 0 to 100 scale where 0 is no effect and 100 is complete control, 13 to 15 d
Outline: as §2

[10] = test system: barnyardgrass (Echinochloa crus-galli); assay: Test A postemergence; conditions: postemergence; for Barnyardgrass plant response rating: visual injury rating on 0 to 100 scale (0 no effect, 100 complete control)
Outline: as §1

[11] = test system: ragweed (common ragweed, Ambrosia elatior); assay: Test A postemergence; conditions: postemergence; for Ragweed plant response rating: visual injury rating on 0 to 100 scale (0 no effect, 100 complete control)
Outline: as §1

Kochia (Kochia scoparia) [12] = assay: Test A postemergence; conditions: postemergence; for Kochia plant response rating: visual injury rating on 0 to 100 scale (0 no effect, 100 complete control)
Outline: as §1

[13] = test system: ryegrass, Italian (Italian ryegrass, Lolium multiflorum); assay: Test A postemergence; conditions: postemergence; for Ryegrass, Italian plant response rating: visual injury rating on 0 to 100 scale (0 no effect, 100 complete control)
Outline: as §1

[14] = test system: wheat (Triticum aestivum); assay: Test A postemergence; conditions: postemergence; for Wheat plant response rating: visual injury rating on 0 to 100 scale (0 no effect, 100 complete control)
Outline: as §1

[15] = test system: blackgrass (Alopecurus myosuroides); assay: Test A postemergence; conditions: postemergence; for Blackgrass plant response rating: visual injury rating on 0 to 100 scale (0 no effect, 100 complete control)
Outline: as §1

corn (Zea mays) = assay: Test A postemergence; conditions: postemergence; for Corn plant response rating: visual injury rating on 0 to 100 scale (0 no effect, 100 complete control)
Outline: as §1

[16] = test system: Galium (catchweed bedstraw, Galium aparine); assay: Test A postemergence; conditions: postemergence; for Galium plant response rating: visual injury rating on 0 to 100 scale (0 no effect, 100 complete control)
Outline: as §1

[17] = test system: giant foxtail (Setaria faberii); assay: Test A postemergence; conditions: postemergence; for Foxtail, Giant plant response rating: visual injury rating on 0 to 100 scale (0 no effect, 100 complete control)
Outline: as §1

[18] = test system: pigweed (Amaranthus retroflexus); assay: Test A postemergence; conditions: postemergence; for Pigweed plant response rating: visual injury rating on 0 to 100 scale (0 no effect, 100 complete control)
Outline: as §1

[19] = 125 g ai/ha, preemergence, 0 to 100 scale (0 no effect, 100 complete control)
[20] = 500 g ai/ha, 0 to 100 scale, 0 no effect, 100 complete control
[21] = 125 g ai/ha, Preemergence, visual injury after approximately 10 d, 0 to 100 scale where 0 is no effect and 100 is complete control
[22] = 500 g ai/ha, preemergence, 0 to 100 scale, 0 = no effect, 100 = complete control
[23] = 125 g ai/ha, visual rating after approx. 10 d, 0 to 100 scale (0 no effect, 100 complete control)
[24] = 500 g ai/ha, visual injury, 0 to 100 scale (0 no effect, 100 complete control), approx. 10 d

Cc1ccc(F)c(NC(=O)C2C(=O)NCC2c2cccc(OC(F)F)c2)c1 (stereo not drawn) [Compound 423]
20: Plant response rating, Ducksalad ([9]; 500 g ai/ha)
0: Plant response rating, Barnyardgrass [1, 19] | Barnyardgrass plant response rating (0 to 100 scale, 0 is no effect, 100 is complete control) ([1]; Preemergence, 500 g ai/ha) | Plant response rating, Ragweed [2, 19] | Ragweed plant response rating (0 to 100 scale, 0 is no effect, 100 is complete control) ([2]; Preemergence, 500 g ai/ha) | Plant response rating, Kochia (Kochia (Kochia scoparia) [3]; [19]) | Kochia plant response rating (0 to 100 scale, 0 is no effect, 100 is complete control) (Kochia (Kochia scoparia) [3]; Preemergence, 500 g ai/ha) | Plant response rating, Ryegrass, Italian [4, 19] | Ryegrass, Italian plant response rating (0 to 100 scale, 0 is no effect, 100 is complete control) ([4]; Preemergence, 500 g ai/ha) | Plant response rating, Foxtail, Giant [5, 19] | Foxtail, Giant plant response rating (0 to 100 scale, 0 is no effect, 100 is complete control) ([5]; Preemergence, 500 g ai/ha) | Plant response rating, Pigweed [6, 19] | Pigweed plant response rating (0 to 100 scale, 0 is no effect, 100 is complete control) ([6]; Preemergence, 500 g ai/ha) | Plant response rating, Barnyardgrass ([7]; 500 g ai/ha) | Plant response rating, Rice (rice (Oryra sativa); 500 g ai/ha) | Plant response rating, Sedge, Umbrella ([8]; 500 g ai/ha) | Barnyardgrass plant response rating ([10]; 125 g ai/ha, approx. 10 d) | Plant response rating, Barnyardgrass [10, 20] | Ragweed plant response rating ([11]; 125 g ai/ha, approx. 10 d) | Plant response rating, Ragweed [11, 20] | Kochia plant response rating (Kochia (Kochia scoparia) [12]; 125 g ai/ha, approx. 10 d) | Plant response rating, Kochia (Kochia (Kochia scoparia) [12]; [20]) | Ryegrass, Italian plant response rating ([13]; 125 g ai/ha, approx. 10 d) | Plant response rating, Ryegrass, Italian [13, 20] | Wheat plant response rating ([14]; 125 g ai/ha, approx. 10 d) | Plant response rating, Wheat [14, 20] | Blackgrass plant response rating ([15]; 125 g ai/ha, approx. 10 d) | Plant response rating, Blackgrass [15, 20] | Corn plant response rating (corn (Zea mays); 125 g ai/ha, approx. 10 d) | Plant response rating, Corn (corn (Zea mays); [20]) | Galium plant response rating ([16]; 125 g ai/ha, approx. 10 d) | Plant response rating, Galium [16, 20] | Foxtail, Giant plant response rating ([17]; 125 g ai/ha, approx. 10 d) | Plant response rating, Foxtail, Giant [17, 20] | Pigweed plant response rating ([18]; 125 g ai/ha, approx. 10 d) | Plant response rating, Pigweed [18, 20]

CN1CC(c2ccc(Cl)cc2)C(C(=O)Nc2ccccc2F)C1=O (stereo not drawn) [Compound 433]
40: Kochia plant response rating (Kochia (Kochia scoparia) [12]; 125 g ai/ha, approx. 10 d) | Plant response rating, Blackgrass [15, 20]
98: Plant response rating, Ducksalad ([9]; 250 g ai/ha)
80: Kochia plant response rating (0 to 100 scale, 0 is no effect, 100 is complete control) (Kochia (Kochia scoparia) [3]; Preemergence, 500 g ai/ha) | Foxtail, Giant plant response rating ([17]; 125 g ai/ha, approx. 10 d) | Plant response rating, Foxtail, Giant [17, 20]
50: Plant response rating, Ragweed [11, 20] | Plant response rating, Kochia (Kochia (Kochia scoparia) [12]; [20]) | Galium plant response rating ([16]; 125 g ai/ha, approx. 10 d) | Plant response rating, Galium [16, 20]
60: Ragweed plant response rating (0 to 100 scale, 0 is no effect, 100 is complete control) ([2]; Preemergence, 500 g ai/ha) | Ryegrass, Italian plant response rating (0 to 100 scale, 0 is no effect, 100 is complete control) ([4]; Preemergence, 500 g ai/ha) | Plant response rating, Ryegrass, Italian [13, 20] | Plant response rating, Wheat [14, 20]
90: Plant response rating, Barnyardgrass [1, 19] | Barnyardgrass plant response rating (0 to 100 scale, 0 is no effect, 100 is complete control) ([1]; Preemergence, 500 g ai/ha) | Plant response rating, Foxtail, Giant [5, 19] | Foxtail, Giant plant response rating (0 to 100 scale, 0 is no effect, 100 is complete control) ([5]; Preemergence, 500 g ai/ha) | Barnyardgrass plant response rating ([10]; 125 g ai/ha, approx. 10 d) | Plant response rating, Barnyardgrass [10, 20]
0: Plant response rating, Rice (rice (Oryra sativa); 250 g ai/ha) | Plant response rating, Sedge, Umbrella ([8]; 250 g ai/ha) | Ragweed plant response rating ([11]; 125 g ai/ha, approx. 10 d) | Corn plant response rating (corn (Zea mays); 125 g ai/ha, approx. 10 d)
30: Ryegrass, Italian plant response rating ([13]; 125 g ai/ha, approx. 10 d) | Wheat plant response rating ([14]; 125 g ai/ha, approx. 10 d) | Blackgrass plant response rating ([15]; 125 g ai/ha, approx. 10 d) | Plant response rating, Corn (corn (Zea mays); [20])
20: Plant response rating, Ryegrass, Italian [4, 19] | Plant response rating, Pigweed [6, 19] | Pigweed plant response rating ([18]; 125 g ai/ha, approx. 10 d) | Plant response rating, Pigweed [18, 20]
70: Plant response rating, Ragweed [2, 19] | Plant response rating, Kochia (Kochia (Kochia scoparia) [3]; [19]) | Pigweed plant response rating (0 to 100 scale, 0 is no effect, 100 is complete control) ([6]; Preemergence, 500 g ai/ha) | Plant response rating, Barnyardgrass ([7]; 250 g ai/ha)

Cc1ccc(C2CNC(=O)C2C(=O)Nc2cccc(F)c2F)cc1C(F)(F)F (racemic) [Compound 679]
90: Plant response rating, Barnyardgrass [1, 22] | Plant response rating, Foxtail, Giant [5, 21] | Plant response rating, Foxtail, Giant [5, 22]
40: Plant response rating, Pigweed [6, 22] | Plant response rating, Barnyardgrass [10, 23] | Plant response rating, Galium [16, 23] | Plant response rating, Pigweed [18, 24]
60: Plant response rating, Kochia (Kochia (Kochia scoparia) [3]; [22]) | Plant response rating, Blackgrass [15, 24] | Plant response rating, Galium [16, 24]
30: Plant response rating, Ragweed [2, 22] | Plant response rating, Kochia (Kochia (Kochia scoparia) [3]; [21]) | Plant response rating, Ryegrass, Italian [4, 22] | Plant response rating, Barnyardgrass ([7]; 250 g ai/ha) | Plant response rating, Blackgrass [15, 23] | Plant response rating, Foxtail, Giant [17, 24]
20: Plant response rating, Ryegrass, Italian [4, 21] | Plant response rating, Ragweed [11, 24] | Plant response rating, Ryegrass, Italian [13, 24] | Plant response rating, Wheat [14, 24] | Plant response rating, Corn (corn (Zea mays); [23])
50: Plant response rating, Corn (corn (Zea mays); [24])
55: Plant response rating, Ducksalad ([9]; 250 g ai/ha)
0: Plant response rating, Ragweed [2, 21] | Plant response rating, Pigweed [6, 21] | Plant response rating, Rice (rice (Oryra sativa); 250 g ai/ha) | Plant response rating, Sedge, Umbrella ([8]; 250 g ai/ha) | Plant response rating, Ragweed [11, 23] | Plant response rating, Kochia (Kochia (Kochia scoparia) [12]; [23]) | Plant response rating, Kochia (Kochia (Kochia scoparia) [12]; [24]) | Plant response rating, Ryegrass, Italian [13, 23] | Plant response rating, Wheat [14, 23] | Plant response rating, Foxtail, Giant [17, 23] | Plant response rating, Pigweed [18, 23]
70: Plant response rating, Barnyardgrass [10, 24]
80: Plant response rating, Barnyardgrass [1, 21]
